Assay results reported in ChEMBL document CHEMBL1122920, “Synthesis and pharmacological evaluation of cis-2,3,3a,4,5,6,7,7a-octahydro-3-oxoisoxazolo[5,4-c]pyridine: a structural analogue of the GABA agonist THIP” (J Med Chem, 1985).

Columns and labels:
Mus musculus = test: Tested for the antagonism of bicuculline -induced convulsions in female mice intraperitoneally; type: functional; conditions: ip, read-out: ID50 (the source's name)
[1] = target: GABA-A receptor; anion channel; test: Displacement of [3H]- muscimol in cerebellar tissue of male rats
Rattus norvegicus = species: Rattus norvegicus; test: Tested for its GABA agonistic activity against spontaneous firing in explants from cerebellum of 2-4 day old rats; type: functional

O=C1NOC2CNCCC12 (cis isomer)
ED50 (Mus musculus): > 56 mg/kg
IC50 [1]: > 1000 nM

NCc1cc(O)no1 [MUSCIMOL]
ED50 (Mus musculus): 0.76 mg/kg
Decrease of spontaneous firing rate (Rattus norvegicus): >=1e-06 M
IC50 [1]: 3 nM

Oc1noc2c1CCNC2 [GABOXADOL]
ED50 (Mus musculus): 1.9 mg/kg
